According to patent publication US20240246992A1, “MACROCYCLIC LRRK2 KINASE INHIBITORS” (LES LABORATOIRES SERVIER, priority 2021, published 2024):

These compounds were tested against human recombinant LRRK2 protein (Homo sapiens, UniProt Q5S007) (assay: LRRK2 kinase activity assay (ADP-Glo, LRRKtide peptide)). Settings: human recombinant LRRK2 wt, LRRKtide peptide and ATP, 1 h at 37° C.
Assay type: biochemical
Summary of the method: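 ADP-Glo luminescence read-out of a peptide assay: compound, ATP and LRRKtide substrate combined with recombinant human LRRK2 and incubated at 37 °C for 1 h. Ten-point data, N=2, curve-fitted to IC50.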

Sequence of human recombinant LRRK2 protein (Q5S007 whole entry): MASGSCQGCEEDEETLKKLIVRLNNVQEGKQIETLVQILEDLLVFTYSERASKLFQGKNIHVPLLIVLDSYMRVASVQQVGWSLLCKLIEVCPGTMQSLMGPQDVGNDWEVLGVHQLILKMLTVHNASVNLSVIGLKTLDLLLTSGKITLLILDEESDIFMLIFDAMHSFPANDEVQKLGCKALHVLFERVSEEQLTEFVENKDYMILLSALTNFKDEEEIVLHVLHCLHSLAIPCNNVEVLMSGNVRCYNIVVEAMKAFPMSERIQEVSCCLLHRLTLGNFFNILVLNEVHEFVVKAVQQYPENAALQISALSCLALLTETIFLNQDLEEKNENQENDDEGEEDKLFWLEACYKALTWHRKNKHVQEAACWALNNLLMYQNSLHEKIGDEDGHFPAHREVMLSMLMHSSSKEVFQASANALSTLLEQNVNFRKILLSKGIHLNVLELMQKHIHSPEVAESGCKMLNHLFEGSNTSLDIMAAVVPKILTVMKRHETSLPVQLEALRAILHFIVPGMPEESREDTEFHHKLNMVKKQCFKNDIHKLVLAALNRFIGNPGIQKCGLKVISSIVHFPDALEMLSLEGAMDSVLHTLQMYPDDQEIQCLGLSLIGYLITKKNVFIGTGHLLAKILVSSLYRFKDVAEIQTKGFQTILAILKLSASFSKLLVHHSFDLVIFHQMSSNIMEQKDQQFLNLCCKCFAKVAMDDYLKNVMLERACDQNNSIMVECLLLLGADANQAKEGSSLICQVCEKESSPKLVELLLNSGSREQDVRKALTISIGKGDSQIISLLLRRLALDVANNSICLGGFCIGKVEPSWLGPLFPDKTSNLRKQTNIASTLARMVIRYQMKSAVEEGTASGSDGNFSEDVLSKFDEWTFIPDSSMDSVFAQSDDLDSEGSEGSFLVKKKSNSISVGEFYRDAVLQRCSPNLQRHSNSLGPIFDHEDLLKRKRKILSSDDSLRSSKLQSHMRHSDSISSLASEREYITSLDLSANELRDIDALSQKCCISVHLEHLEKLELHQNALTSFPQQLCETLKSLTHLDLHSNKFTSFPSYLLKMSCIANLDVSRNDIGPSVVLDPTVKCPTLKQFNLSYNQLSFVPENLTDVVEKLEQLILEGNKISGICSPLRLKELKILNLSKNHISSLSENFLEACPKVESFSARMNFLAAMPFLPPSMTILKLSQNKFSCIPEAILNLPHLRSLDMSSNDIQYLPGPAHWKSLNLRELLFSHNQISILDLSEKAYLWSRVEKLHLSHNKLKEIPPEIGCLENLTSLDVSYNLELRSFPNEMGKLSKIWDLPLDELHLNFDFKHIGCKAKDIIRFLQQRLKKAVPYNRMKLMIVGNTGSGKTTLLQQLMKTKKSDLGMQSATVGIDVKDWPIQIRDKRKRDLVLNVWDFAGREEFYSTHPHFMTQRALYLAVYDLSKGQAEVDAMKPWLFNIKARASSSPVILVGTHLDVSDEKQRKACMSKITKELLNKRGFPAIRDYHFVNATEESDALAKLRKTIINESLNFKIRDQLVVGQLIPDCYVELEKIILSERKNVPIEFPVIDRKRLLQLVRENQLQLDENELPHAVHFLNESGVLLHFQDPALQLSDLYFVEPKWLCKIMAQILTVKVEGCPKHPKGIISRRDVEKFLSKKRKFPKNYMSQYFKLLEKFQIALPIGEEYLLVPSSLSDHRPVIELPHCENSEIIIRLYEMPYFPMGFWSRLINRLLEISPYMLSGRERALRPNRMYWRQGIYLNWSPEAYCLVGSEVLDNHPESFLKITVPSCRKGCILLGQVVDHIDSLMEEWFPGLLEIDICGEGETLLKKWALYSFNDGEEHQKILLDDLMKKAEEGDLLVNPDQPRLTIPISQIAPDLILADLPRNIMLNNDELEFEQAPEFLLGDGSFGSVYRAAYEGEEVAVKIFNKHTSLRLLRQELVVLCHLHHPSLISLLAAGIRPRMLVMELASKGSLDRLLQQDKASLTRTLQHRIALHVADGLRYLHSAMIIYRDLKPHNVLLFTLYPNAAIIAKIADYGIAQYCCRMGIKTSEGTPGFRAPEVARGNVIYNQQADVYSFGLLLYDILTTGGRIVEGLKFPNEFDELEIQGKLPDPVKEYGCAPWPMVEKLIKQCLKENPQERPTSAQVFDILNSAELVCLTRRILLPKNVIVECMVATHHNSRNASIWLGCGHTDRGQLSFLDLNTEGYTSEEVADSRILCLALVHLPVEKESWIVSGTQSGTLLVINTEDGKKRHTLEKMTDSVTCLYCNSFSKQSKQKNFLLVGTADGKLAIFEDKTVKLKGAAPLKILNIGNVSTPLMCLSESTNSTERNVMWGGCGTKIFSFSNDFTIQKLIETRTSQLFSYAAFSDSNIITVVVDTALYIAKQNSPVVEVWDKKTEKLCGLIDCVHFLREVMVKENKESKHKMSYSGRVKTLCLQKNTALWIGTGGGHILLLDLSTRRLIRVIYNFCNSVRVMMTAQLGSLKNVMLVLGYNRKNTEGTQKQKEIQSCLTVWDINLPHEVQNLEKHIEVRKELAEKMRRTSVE

Compound | IC50
c1cc2cc(c1)-c1n[nH]c3ccc(cc13)OCCCNCCO2 [Example 135, 7,14-dioxa-10,19,20-triazatetracyclo[13.5.2.1^2,6.0^18,21]tricosa-1(20),2(23),3,5,15(22),16,18(21)-heptaene] | < 10 nM
O=C1COc2cncc(c2)-c2n[nH]c3ccc(cc23)OCCCN1 [Example 136, 7,14-dioxa-4,10,19,20-tetraazatetracyclo[13.5.2.1^2,6.0^18,21]tricosa-1(20),2,4,6(23),15,17,21-heptaen-9-one] | < 10 nM
c1cc2[nH]nc3c2cc1OCCCNCCOc1cncc-3c1 [Example 137, 7,14-dioxa-4,10,19,20-tetraazatetracyclo[13.5.2.1^2,6.0^18,21]tricosa-1(20),2,4,6(23),15,17,21-heptaene] | < 10 nM
O=C1COc2cc(ccc2F)-c2n[nH]c3ccc(cc23)OCCCN1 [Example 138, 5-fluoro-7,14-dioxa-10,19,20-triazatetracyclo[13.5.2.1^2,6.0^18,21]tricosa-1(20),2,4,6(23),15,17,21-heptaen-9-one] | < 100 nM
Fc1ccc2cc1OCCNCCCOc1ccc3[nH]nc-2c3c1 [Example 139, 5-fluoro-7,14-dioxa-10,19,20-triazatetracyclo[13.5.2.1^2,6.0^18,21]tricosa-1(20),2,4,6(23),15,17,21-heptaene] | < 10 nM
Cc1ccc2cc1OCC(=O)NCCCOc1ccc3[nH]nc-2c3c1 [Example 140, 5-methyl-7,14-dioxa-10,19,20-triazatetracyclo[13.5.2.1^2,6.0^18,21] tricosa-1(20),2,4,6(23),15,17,21-heptaen-9-one] | < 10 nM
Cc1ccc2cc1OCCNCCCOc1ccc3[nH]nc-2c3c1 [Example 141, 5-methyl-7,14-dioxa-10,19,20-triazatetracyclo[13.5.2.1^2,6.0^18,21] tricosa-1(20),2,4,6(23),15,17,21-heptaene] | < 10 nM
O=C1COc2cc(Cl)cc(c2)-c2n[nH]c3ccc(cc23)OCCCN1 [Example 142, 4-chloro-7,14-dioxa-10,19,20-triazatetracyclo[13.5.2.1^2,6.0^18,21]tricosa-1(20),2,4,6(23),15,17,21-heptaen-9-one] | < 10 nM
Clc1cc2cc(c1)-c1n[nH]c3ccc(cc13)OCCCNCCO2 [Example 143, 4-chloro-7,14-dioxa-10,19,20-triazatetracyclo[13.5.2.1^2,6.0^18,21]tricosa-1(20),2,4,6(23),15,17,21-heptaene] | < 10 nM
Cc1cc2cc(c1)-c1n[nH]c3ccc(cc13)OCCCNC(=O)CO2 [Example 144, 4-methyl-7,14-dioxa-10,19,20-triazatetracyclo[13.5.2.1^2,6.0^18,21]tricosa-1(20),2(23),3,5,15,17,21-heptaen-9-one] | < 10 nM
Cc1cc2cc(c1)-c1n[nH]c3ccc(cc13)OCCCNCCO2 [Example 145, 4-methyl-7,14-dioxa-10,19,20-triazatetracyclo[13.5.2.1^2,6.0^18,21]tricosa-1(20),2(23),3,5,15,17,21-heptaene] | < 10 nM
O=C1COc2cc(cc(C3CCOCC3)c2)-c2n[nH]c3ccc(cc23)OCCCN1 [Example 146, 4-(oxan-4-yl)-7,14-dioxa-10,19,20-triazatetracyclo[13.5.2.1^2,6.0^18,21]tricosa-1(20),2(23),3,5,15,17,21-heptaen-9-one] | < 10 nM
c1cc2[nH]nc3c2cc1OCCCNCCOc1cc-3cc(C2CCOCC2)c1 [Example 147, 4-(oxan-4-yl)-7,14-dioxa-10,19,20-triazatetracyclo[13.5.2.1^2,6.0^18,21]tricosa-1(20),2(23),3,5,15,17,21-heptaene] | < 10 nM
O=C1COc2cc(cc(C3CCCOC3)c2)-c2n[nH]c3ccc(cc23)OCCCN1 (stereo not shown) [Example 148, 4-(oxan-3-yl)-7,14-dioxa-10,19,20-triazatetracyclo[13.5.2.1^2,6.0^18,21]tricosa-1(20),2(23),3,5,15,17,21-heptaen-9-one] | < 10 nM
c1cc2[nH]nc3c2cc1OCCCNCCOc1cc-3cc(C2CCCOC2)c1 (stereo not shown) [Example 149, 4-(oxan-3-yl)-7,14-dioxa-10,19,20-triazatetracyclo[13.5.2.1^2,6.0^18,21]tricosa-1(20),2(23),3,5,15,17,21-heptaene] | < 10 nM
O=C1COc2cccc(c2)-c2n[nH]c3ccc(cc23)OCCC(CF)N1 (stereo not shown) [Example 154, 11-(fluoromethyl)-7,14-dioxa-10,19,20-triazatetracyclo [13.5.2.1^2,6.0^18,21]tricosa-1(20),2,4,6(23),15,17,21-heptaen-9-one] | < 100 nM
FCC1CCOc2ccc3[nH]nc(c3c2)-c2cccc(c2)OCCN1 (stereo not shown) [Example 155, 11-(fluoromethyl)-7,14-dioxa-10,19,20-triazatetracyclo [13.5.2.1^2,6.0^18,21]tricosa-1(20),2,4,6(23),15,17,21-heptaene] | < 100 nM

Compound | IC50
O=C1NCCCOc2ccc3[nH]nc(c3c2)-c2cncc(c2)OC12CC2 [Example 156, 7′,14′-dioxa-4′,10′,19′,20′-tetraazaspiro[cyclopropane-1,8′-tetracyclo[13.5.2.1^2,6.0^18,21]tricosane]-1′(20′),2′(23′),3′,5′,15′,17′,21′-heptaen-9′-one] | < 100 nM
c1cc2[nH]nc3c2cc1OCCCNCC1(CC1)Oc1cncc-3c1 [Example 157, 7′,14′-dioxa-4′,10′,19′,20′-tetraazaspiro[cyclopropane-1,8′-tetracyclo[13.5.2.1^2,6.0^18,21]tricosane]-1′(20′),2′(23′),3′,5′,15′,17′,21′-heptaene] | < 10 nM
CC1CCNC(=O)COc2cncc(c2)-c2n[nH]c3ccc(cc23)O1 (stereo not shown) [Example 158, 13-methyl-7,14-dioxa-4,10,19,20-tetraazatetracyclo[13.5.2.1^2,6.0^18,21]tricosa-1(20),2,4,6(23),15,17,21-heptaen-9-one] | < 100 nM
CC1CCNCCOc2cncc(c2)-c2n[nH]c3ccc(cc23)O1 (stereo not shown) [Example 159, 13-methyl-7,14-dioxa-4,10,19,20-tetraazatetracyclo[13.5.2.1^2,6.0^18,21]tricosa-1(20),2,4,6(23),15,17,21-heptaene] | < 10 nM
CC1Oc2cncc(c2)-c2n[nH]c3ccc(cc23)OCCCN(C)C1=O (stereo not shown) [Example 160, 8,10-dimethyl-7,14-dioxa-4,10,19,20-tetraazatetracyclo [13.5.2.1^2,6.0^18,21]tricosa-1(20),2,4,6(23),15,17,21-heptaen-9-one] | < 100 nM
CC1CN(C)CCCOc2ccc3[nH]nc(c3c2)-c2cncc(c2)O1 (stereo not shown) [Example 161, 8,10-dimethyl-7,14-dioxa-4,10,19,20-tetraazatetracyclo [13.5.2.1^2,6.0^18,21]tricosa-1(20),2,4,6(23),15,17,21-heptaene] | < 100 nM
C[C@@H]1CCNC(=O)COc2cncc(c2)-c2n[nH]c3ccc(cc23)O1 [Example 162, (13R)-13-methyl-7,14-dioxa-4,10,19,20-tetraazatetracyclo[13.5.2.1^2,6.0^18,21]tricosa-1(20),2,4,6(23),15(22),16,18(21)-heptaen-9-one] | < 100 nM
C[C@@H]1CCNCCOc2cncc(c2)-c2n[nH]c3ccc(cc23)O1 [Example 163, (13R)-13-methyl-7,14-dioxa-4,10,19,20-tetraazatetracyclo[13.5.2.1^2,6.0^18,21]tricosa-1(20),2,4,6(23),15(22),16,18(21)-heptaene] | < 10 nM
O=C1NCCCOc2ccc3[nH]nc(c3c2)-c2cccc(c2)[C@H]2C[C@H]12 [Example 164, (7S,9S)-15-oxa-11,20,21-triazapentacyclo[14.5.2.1^2,6.0^7,9.0^19,22] tetracosa-1(21),2(24),3,5,16(23),17,19(22)-heptaen-10-one] | < 100 nM
c1cc2cc(c1)[C@H]1C[C@@H]1CNCCCOc1ccc3[nH]nc-2c3c1 [Example 165, (7S,9S)-15-oxa-11,20,21-triazapentacyclo[14.5.2.1^2,6.0^7,9.0^19,22]tetracosa-1(21),2(24),3,5,16(23),17,19(22)-heptaene] | < 1000 nM
O=C1CCc2cccc(c2)-c2n[nH]c3ccc(cc23)OCCCN1 [Example 166, 14-oxa-10,19,20-triazatetracyclo[13.5.2.1^2,6.0^18,21]tricosa-1(20),2(23),3,5,15(22),16,18(21)-heptaen-9-one] | < 10 nM
c1cc2cc(c1)-c1n[nH]c3ccc(cc13)OCCCNCCC2 [Example 167, 14-oxa-10,19,20-triazatetracyclo[13.5.2.1^2,6.0^18,21]tricosa-1(20),2(23),3,5,15(22),16,18(21)-heptaene] | < 10 nM
C[C@@H]1COc2ccc3[nH]nc(c3c2)-c2cccc(c2)OCC(=O)N[C@H]1C [Example 168, (11S,12S)-11,12-dimethyl-7,14-dioxa-10,19,20-triazatetracyclo[13.5.2.1^2,6.0^18,21]tricosa-1(20),2(23),3,5,15(22),16,18(21)-heptaen-9-one] | < 100 nM
C[C@@H]1COc2ccc3[nH]nc(c3c2)-c2cccc(c2)OCCN[C@H]1C [Example 169, (11S,12S)-11,12-dimethyl-7,14-dioxa-10,19,20-triazatetracyclo[13.5.2.1^2,6.0^18,21]tricosa-1(20),2(23),3,5,15(22),16,18(21)-heptaene] | < 100 nM
COC1CNC(=O)COc2cccc(c2)-c2n[nH]c3ccc(cc23)OC1 (stereo not shown) [Example 170, 12-methoxy-7,14-dioxa-10,19,20-triazatetracyclo[13.5.2.1^2,6.0^18,21]tricosa-1(20),2(23),3,5,15,17,21-heptaen-9-one] | < 100 nM
COC1CNCCOc2cccc(c2)-c2n[nH]c3ccc(cc23)OC1 (stereo not shown) [Example 171, 12-methoxy-7,14-dioxa-10,19,20-triazatetracyclo[13.5.2.1^2,6.0^18,21]tricosa-1(20),2(23),3,5,15,17,21-heptaene] | < 100 nM
C[C@@H]1CCNC(=O)COc2cc(cc(N3CCOCC3)c2)-c2n[nH]c3ccc(cc23)O1 [Example 172, (13R)-13-methyl-4-(morpholin-4-yl)-7,14-dioxa-10,19,20-triazatetracyclo[13.5.2.1^2,6.0^18,21]tricosa-1(20),2(23),3,5,15,17,21-heptaen-9-one] | < 10 nM
